Patent US20090247559A1 (Exelixis, Inc., priority 2007, published 2009)
Where two headings read alike, the source gives them in different places.

Experiments:
[1] = biological target: CDC7 (Homo sapiens, UniProt O00311); assay: CDC7 inhibition, biochemical chemiluminescence assay (Kinase Glo, IC50 determination)
Procedure: Characterization of CDC7 Inhibition in a Biochemical Chemiluminesence Assay (IC50 Determination):
The IC50 evaluation of compounds against the CDC7 enzyme was performed in a Chemiluminesence assay utilizing a Greiner 384-well white binding plate format. […] Upon addition of 10 μL of CDC-7 (GB) to the designated well plates and subsequent incubation for ten minutes at ambient temperature, 10 μL of ATP mix in Tris Base was added. Following an incubation period of 90 minutes at ambient temperature (24-27° C.), 20 μL of Kinase Glo (Promega) was added to measure kinase activity by quantitating the amount of ATP remaining in solution. The luminescence was measured following a Luciferase Protocol on either EnVision or Victor plate readers.

[2] = biological target: CK2 (Homo sapiens, UniProt P68400); assay: CK2 inhibition, biochemical chemiluminescence holoenzyme assay (Kinase Glo, IC50 determination); details: Table 1 activity class; symbol given only if active; read-out: CK2 IC50 (Activity C)
Chain of CK2 (P68400 whole entry): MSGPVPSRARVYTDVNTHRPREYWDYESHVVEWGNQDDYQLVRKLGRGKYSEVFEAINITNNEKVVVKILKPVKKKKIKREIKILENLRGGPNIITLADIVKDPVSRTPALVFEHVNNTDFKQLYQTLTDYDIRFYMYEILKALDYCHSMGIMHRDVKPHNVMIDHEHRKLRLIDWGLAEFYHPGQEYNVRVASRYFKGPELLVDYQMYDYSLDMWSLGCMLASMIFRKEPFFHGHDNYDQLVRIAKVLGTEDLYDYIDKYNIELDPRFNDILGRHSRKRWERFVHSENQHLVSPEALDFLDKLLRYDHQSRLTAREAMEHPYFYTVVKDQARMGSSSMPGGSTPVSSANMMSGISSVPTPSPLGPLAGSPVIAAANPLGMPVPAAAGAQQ
Chain of CK2 (P67870 whole entry partner): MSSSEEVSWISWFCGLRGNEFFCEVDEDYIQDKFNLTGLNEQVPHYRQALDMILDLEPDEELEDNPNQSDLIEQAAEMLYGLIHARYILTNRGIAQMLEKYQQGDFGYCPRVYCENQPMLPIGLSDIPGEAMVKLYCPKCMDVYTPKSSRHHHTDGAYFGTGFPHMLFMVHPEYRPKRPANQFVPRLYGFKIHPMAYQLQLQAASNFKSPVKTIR
Method in brief: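 Holoenzyme CK2 assay; compounds pre-incubated with substrate and enzyme, then reacted 150 min at 24-27° C. Remaining ATP measured as luminescence with Kinase Glo, and IC50 derived from the signal.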

[3] = biological target: PIM (PIM-1, PIM-2, and/or PIM-3); assay: PIM-1, PIM-2 and PIM-3 inhibition, biochemical chemiluminescence assays (Kinase Glo, IC50 determination); details: Table 1 activity class; PIM refers to PIM-1, PIM-2, and/or PIM-3; read-out: PIM IC50 (Activity B)
[4] = CDC7 IC50 (Activity A), Table 1 activity class, symbol given only if active
[5] = CDC7 IC50 value, compounds in Table 1
[6] = Table 1 activity class, symbol given only if active, read-out: CDC7 IC50 (Activity A)
[7] = compounds in Table 1, read-out: CDC7 IC50 value

Chain of CDC7 (O00311 whole entry): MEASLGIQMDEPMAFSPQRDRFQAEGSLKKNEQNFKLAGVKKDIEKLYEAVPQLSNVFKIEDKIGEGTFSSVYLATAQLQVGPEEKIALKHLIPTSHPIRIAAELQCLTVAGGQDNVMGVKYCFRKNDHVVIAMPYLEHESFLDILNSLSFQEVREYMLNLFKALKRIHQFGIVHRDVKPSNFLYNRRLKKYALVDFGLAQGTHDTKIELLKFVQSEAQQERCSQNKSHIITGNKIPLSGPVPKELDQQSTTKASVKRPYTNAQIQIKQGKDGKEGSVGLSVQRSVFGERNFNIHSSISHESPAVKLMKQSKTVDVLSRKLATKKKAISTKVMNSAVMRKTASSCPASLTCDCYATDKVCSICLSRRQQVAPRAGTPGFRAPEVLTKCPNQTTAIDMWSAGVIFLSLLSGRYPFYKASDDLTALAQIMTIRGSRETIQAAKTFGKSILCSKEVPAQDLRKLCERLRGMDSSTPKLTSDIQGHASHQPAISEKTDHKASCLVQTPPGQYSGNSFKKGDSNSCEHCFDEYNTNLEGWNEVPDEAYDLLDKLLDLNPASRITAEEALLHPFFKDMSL
Chain of CDC7 (Q9UBU7 whole entry partner): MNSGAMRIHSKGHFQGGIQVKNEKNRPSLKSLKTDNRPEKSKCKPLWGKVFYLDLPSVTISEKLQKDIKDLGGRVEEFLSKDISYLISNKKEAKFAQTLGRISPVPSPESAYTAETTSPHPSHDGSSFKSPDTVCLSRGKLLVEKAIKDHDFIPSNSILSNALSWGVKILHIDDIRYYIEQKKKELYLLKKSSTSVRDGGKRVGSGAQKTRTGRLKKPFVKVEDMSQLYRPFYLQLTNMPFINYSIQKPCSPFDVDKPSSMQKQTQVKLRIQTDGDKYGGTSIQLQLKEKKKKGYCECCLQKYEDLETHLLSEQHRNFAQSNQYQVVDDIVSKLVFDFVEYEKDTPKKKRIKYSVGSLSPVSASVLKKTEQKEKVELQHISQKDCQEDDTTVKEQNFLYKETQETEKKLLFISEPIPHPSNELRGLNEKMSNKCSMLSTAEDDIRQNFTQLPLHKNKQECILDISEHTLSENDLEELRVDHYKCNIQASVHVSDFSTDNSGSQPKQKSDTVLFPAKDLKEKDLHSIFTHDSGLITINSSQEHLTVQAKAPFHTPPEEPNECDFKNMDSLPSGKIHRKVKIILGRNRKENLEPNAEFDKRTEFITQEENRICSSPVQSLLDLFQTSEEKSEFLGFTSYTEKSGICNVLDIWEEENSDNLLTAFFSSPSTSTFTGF

Row | Compound | IC50 [1, 4] [µM] | IC50 [1, 5] [µM] | IC50 [2] [µM] | IC50 [3] [µM] | IC50 [1, 6] [µM] | IC50 [1, 7] [µM]
1 | O=c1[nH]c(CN2C[C@@H]3C[C@H]2CN3)nc2c1oc1ccc(Br)cc12 [Compound 119, 8-bromo-2-[(1S,4S)-2,5-diazabicyclo[2.2.1]hept-2-ylmethyl][1]benzofuro[3,2-d]pyrimidin-4(3H)-one] | < 10 | < 0.1 | < 10 | < 10 |  | 
2 | O=c1[nH]c(CN2CCCC(O)C2)nc2c1oc1ccc(Br)cc12 (stereo not shown) [Compound 400, 8-bromo-2-[(3-hydroxypiperidin-1-yl)methyl][1]benzofuro[3,2-d]pyrimidin-4(3H)-one] |  |  | < 10 | < 10 | < 10 | < 0.1
3 | CN1CCC(NCc2ccc(-c3nc4c(oc5ccc(Br)cc54)c(=O)[nH]3)c(Cl)c2)CC1 [Compound 435, 8-bromo-2-(2-chloro-4-{[(1-methylpiperidin-4-yl)amino]methyl}phenyl)[1]benzofuro[3,2-d]pyrimidin-4(3H)-one] |  |  | < 10 | < 10 | < 10 | 
4 | CN1CCC(c2nc3c(oc4ccc(Br)cc43)c(=O)[nH]2)C1 (stereo not shown) [Compound 289, 8-bromo-2-(1-methylpyrrolidin-3-yl)[1]benzofuro[3,2-d]pyrimidin-4(3H)-one] |  |  | < 10 | < 10 | < 10 | < 0.1
5 | O=C(Nc1ccc(-c2nc3c(oc4ccc(Br)cc43)c(=O)[nH]2)c(Cl)c1)c1ccccn1 [Compound 293, N-[4-(8-bromo-4-oxo-3,4-dihydro[1]benzofuro[3,2-d]pyrimidin-2-yl)-3-chlorophenyl]pyridine-2-carboxamide] |  |  | < 10 | < 10 | < 10 | 
6 | O=c1[nH]c(-c2ccncc2Cl)nc2c1oc1ccc(Br)cc12 [Compound 112, 8-bromo-2-(3-chloropyridin-4-yl)[1]benzofuro[3,2-d]pyrimidin-4(3H)-one] |  |  | < 10 | < 10 | < 10 | 
7 | COC(=O)Nc1ccc(-c2nc3c(oc4ccc(Br)cc43)c(=O)[nH]2)c(Cl)c1 [Compound 320, methyl [4-(8-bromo-4-oxo-3,4-dihydro[1]benzofuro[3,2-d]pyrimidin-2-yl)-3-chlorophenyl]carbamate] |  |  | < 10 | < 10 | < 10 | 
8 | O=c1[nH]c([C@@H]2Cc3ccccc3N2)nc2c1oc1ccc(Br)cc12 [Compound 510, 8-bromo-2-[(2S)-2,3-dihydro-1H-indol-2-yl][1]benzofuro[3,2-d]pyrimidin-4(3H)-one] |  |  | < 10 | < 10 | < 10 | 
9 | O=c1[nH]c(C2CCN(Cc3ccncc3)C2)nc2c1oc1ccc(Br)cc12 (stereo not shown) [Compound 290, 8-bromo-2-[1-(pyridin-4-ylmethyl)pyrrolidin-3-yl][1]benzofuro[3,2-d]pyrimidin-4(3H)-one] |  |  | < 10 | < 10 | < 10 | 
10 | CO[C@@H]1CCN(Cc2nc3c(oc4ccc(Br)cc43)c(=O)[nH]2)C1 [Compound 408, 8-bromo-2-{[(3R)-3-(methyloxy)pyrrolidin-1-yl]methyl}[1]benzofuro[3,2-d]pyrimidin-4(3H)-one] |  |  | < 10 | < 10 | < 10 | < 0.1
11 | CCc1ccc2oc3c(=O)[nH]c(CN4CC[C@H](O)C4)nc3c2c1 [Compound 460, 8-ethyl-2-{[(3S)-3-hydroxypyrrolidin-1-yl]methyl}[1]benzofuro[3,2-d]pyrimidin-4(3H)-one] |  |  | < 10 | < 10 | < 10 | 
12 | COc1c(Br)ccc2oc3c(=O)[nH]c(CN4CC[C@H](O)C4)nc3c12 [Compound 447, 8-bromo-2-{[(3S)-3-hydroxypyrrolidin-1-yl]methyl}-9-(methyloxy)[1]benzofuro[3,2-d]pyrimidin-4(3H)-one] |  |  | < 10 | < 10 | < 10 | 
13 | Nc1ccc(-c2nc3c(oc4ccc(Br)cc43)c(=O)[nH]2)c(Cl)c1 [Compound 34, 2-(4-Amino-2-chlorophenyl)-8-bromo[1]benzofuro[3,2-d]pyrimidin-4(3H)-one] |  |  | < 10 | < 10 | < 10 | 
14 | C[C@@H](N)c1nc2c(oc3ccc(Br)cc32)c(=O)[nH]1 [Compound 493, 2-[(1R)-1-aminoethyl]-8-bromo[1]benzofuro[3,2-d]pyrimidin-4(3H)-one] |  |  | < 10 | < 10 | < 10 | < 0.1
15 | O=c1[nH]c(CN2CC3CCC2C3O)nc2c1oc1ccc(Br)cc12 (racemic) [Compound 332, 8-bromo-2-((7-hydroxy-2-azabicyclo[2.2.1]heptan-2-yl)methyl)benzofuro[3,2-d]pyrimidin-4(3H)-one] |  |  | < 10 | < 10 | < 10 | < 0.1
16 | CC(C)(C)NCc1nc2c(oc3ccc(Br)cc32)c(=O)[nH]1 [Compound 503, 8-bromo-2-{[(1,1-dimethylethyl)amino]methyl}[1]benzofuro[3,2-d]pyrimidin-4(3H)-one] |  |  | < 10 | < 10 | < 10 | < 0.1
17 | CN(C)CCNc1cc(-c2nc3c(oc4ccc(Br)cc43)c(=O)[nH]2)c(Cl)cn1 [Compound 283, 8-bromo-2-(5-chloro-2-{[2-(dimethylamino)ethyl]amino}pyridin-4-yl)[1]benzofuro[3,2-d]pyrimidin-4(3H)-one] |  |  | < 10 | < 10 | < 10 | 
18 | O=C(Nc1ccc(-c2nc3c(oc4ccc(Br)cc43)c(=O)[nH]2)c(Cl)c1)c1ccon1 [Compound 363, N-[4-(8-bromo-4-oxo-3,4-dihydro[1]benzofuro[3,2-d]pyrimidin-2-yl)-3-chlorophenyl]isoxazole-3-carboxamide] |  |  | < 10 | < 10 | < 10 | 
19 | CC(=O)Nc1ccc(-c2nc3c(oc4ccc(Br)cc43)c(=O)[nH]2)c(Cl)c1 [Compound 121, N-[4-(8-bromo-4-oxo-3,4-dihydro[1]benzofuro[3,2-d]pyrimidin-2-yl)-3-chlorophenyl]acetamide] |  |  | < 10 | < 10 | < 10 | 
20 | O=c1[nH]c(CN2CCCC2)nc2c1oc1ccc(Cl)cc12 [Compound 5, 8-chloro-2-(pyrrolidin-1-ylmethyl)[1]benzofuro[3,2-d]pyrimidin-4(3H)-one] |  |  | < 10 | < 10 | < 10 | < 0.1
21 | O=C(Nc1ccc(-c2nc3c(oc4ccc(Br)cc43)c(=O)[nH]2)c(Cl)c1)C1CCNCC1 [Compound 161, N-[4-(8-bromo-4-oxo-3,4-dihydro[1]benzofuro[3,2-d]pyrimidin-2-yl)-3-chlorophenyl]piperidine-4-carboxamide] |  |  | < 10 | < 10 | < 10 | 
22 | Cc1cc(C(=O)Nc2ccc(-c3nc4c(oc5ccc(Br)cc54)c(=O)[nH]3)c(Cl)c2)no1 [Compound 362, N-[4-(8-bromo-4-oxo-3,4-dihydro[1]benzofuro[3,2-d]pyrimidin-2-yl)-3-chlorophenyl]-5-methylisoxazole-3-carboxamide] |  |  | < 10 | < 10 | < 10 | 
23 | O=C(Nc1ccc(-c2nc3c(oc4ccc(Br)cc43)c(=O)[nH]2)c(Cl)c1)c1ccncc1Cl [Compound 275, N-[4-(8-bromo-4-oxo-3,4-dihydro[1]benzofuro[3,2-d]pyrimidin-2-yl)-3-chlorophenyl]-3-chloropyridine-4-carboxamide] |  |  | < 10 | < 10 | < 10 | 
24 | O=c1[nH]c(CC2CCCNC2)nc2c1oc1ccc(Br)cc12 (stereo not shown) [Compound 194, 8-bromo-2-(piperidin-3-ylmethyl)[1]benzofuro[3,2-d]pyrimidin-4(3H)-one] |  |  | < 10 | < 10 | < 10 | 
25 | O=C(N[C@@H]1CN(Cc2nc3c(oc4ccc(Br)cc43)c(=O)[nH]2)C[C@H]1O)C1CCNCC1 [Compound 388, N-{(3R,4R)-1-[(8-bromo-4-oxo-3,4-dihydro[1]benzofuro[3,2-d]pyrimidin-2-yl)methyl]-4-hydroxypyrrolidin-3-yl}piperidine-4-carboxamide] |  |  | < 10 | < 10 | < 10 | 
26 | NC1(c2nc3c(oc4ccc(Br)cc43)c(=O)[nH]2)CCCCC1 [Compound 542, 2-(1-aminocyclohexyl)-8-bromo[1]benzofuro[3,2-d]pyrimidin-4(3H)-one] | < 10 | < 0.1 | < 10 |  |  | 
27 | O=C(NCc1ccccc1)C1CCN(Cc2nc3c(oc4ccc(Br)cc43)c(=O)[nH]2)C1 (stereo not shown) [Compound 266, 1-[(8-bromo-4-oxo-3,4-dihydro[1]benzofuro[3,2-d]pyrimidin-2-yl)methyl]-N-(phenylmethyl)pyrrolidine-3-carboxamide] |  |  | < 10 |  | < 10 | 
28 | O=c1[nH]c(C2CNCCO2)nc2c1oc1ccc(Br)cc12 (stereo not shown) [Compound 298, 8-Bromo-2-morpholin-2-yl[1]benzofuro[3,2-d]pyrimidin-4(3H)-one] |  |  | < 10 |  | < 10 | < 0.1
